In PubChem BioAssay (NCI):
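Where inhibition never reached the appropriate level, the endpoint shown equals the highest concentration tested. Otherwise, values were interpolated linearly from a five-concentration, 48-hour dose response in 96-well plates. The concentration for full growth arrest is given as TGI.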

Legend:
Test in all cases: growth of human tumour cells (NCI), 48 h
786-0 renal = test system: 786-0 renal
A498 renal = test system: A498 renal
A549 NSCLC = test system: A549 NSCLC
ACHN renal = test system: ACHN renal
BT-549 breast = test system: BT-549 breast
CAKI-1 renal = test system: CAKI-1 renal
COLO 205 colon = test system: COLO 205 colon
DU-145 prostate = test system: DU-145 prostate
EKVX NSCLC = test system: EKVX NSCLC
HCC-2998 colon = test system: HCC-2998 colon
HCT-116 colon = test system: HCT-116 colon
HCT-15 colon = test system: HCT-15 colon
HL-60(TB) leukemia = test system: HL-60(TB) leukemia
HOP-62 NSCLC = test system: HOP-62 NSCLC
HOP-92 NSCLC = test system: HOP-92 NSCLC
HS 578T breast = test system: HS 578T breast
HT29 colon = test system: HT29 colon
K-562 leukemia = test system: K-562 leukemia
KM12 colon = test system: KM12 colon
LOX IMVI melanoma = test system: LOX IMVI melanoma
M14 melanoma = test system: M14 melanoma
MALME-3M melanoma = test system: MALME-3M melanoma
MCF7 breast = test system: MCF7 breast
MDA-MB-231 breast = test system: MDA-MB-231 breast
MDA-MB-435 = test system: MDA-MB-435
MDA-N = test system: MDA-N
MOLT-4 leukemia = test system: MOLT-4 leukemia
NCI-H226 lung = test system: NCI-H226 lung
NCI-H23 lung = test system: NCI-H23 lung
NCI-H522 lung = test system: NCI-H522 lung
NCI/ADR-RES ovarian = test system: NCI/ADR-RES ovarian
OVCAR-3 ovarian = test system: OVCAR-3 ovarian
OVCAR-4 ovarian = test system: OVCAR-4 ovarian
OVCAR-5 ovarian = test system: OVCAR-5 ovarian
OVCAR-8 ovarian = test system: OVCAR-8 ovarian
PC-3 prostate = test system: PC-3 prostate
RPMI-8226 leukemia = test system: RPMI-8226 leukemia
RXF 393 renal = test system: RXF 393 renal
SF-268 CNS = test system: SF-268 CNS
SF-295 CNS = test system: SF-295 CNS
SK-MEL-2 melanoma = test system: SK-MEL-2 melanoma
SK-MEL-28 melanoma = test system: SK-MEL-28 melanoma
SK-MEL-5 melanoma = test system: SK-MEL-5 melanoma
SK-OV-3 ovarian = test system: SK-OV-3 ovarian
SN12C renal = test system: SN12C renal
SNB-19 CNS = test system: SNB-19 CNS
SNB-75 CNS = test system: SNB-75 CNS
SR leukemia = test system: SR leukemia
SW-620 colon = test system: SW-620 colon
T-47D breast = test system: T-47D breast
TK-10 renal = test system: TK-10 renal
U251 CNS = test system: U251 CNS
UACC-257 melanoma = test system: UACC-257 melanoma
UACC-62 melanoma = test system: UACC-62 melanoma
UO-31 renal = test system: UO-31 renal
CCRF-CEM leukemia = test system: CCRF-CEM leukemia
IGROV1 ovarian = test system: IGROV1 ovarian
NCI-H460 lung = test system: NCI-H460 lung
SF-539 CNS = test system: SF-539 CNS

Compound: CC(=O)Oc1ccc2c3c1[C@H]1O[C@H]1c1cccc(c1-3)[C@@H]1O[C@H]21
- TGI (786-0 renal): 6.01 µM
- TGI (A498 renal): 33.8 µM
- TGI (A549 NSCLC): 22.1 µM
- TGI (ACHN renal): 37.4 µM
- TGI (BT-549 breast): 23.6 µM
- TGI (CAKI-1 renal): 7.96 µM
- TGI (COLO 205 colon): 27.4 µM
- TGI (DU-145 prostate): 20.8 µM
- TGI (EKVX NSCLC): 36.9 µM
- TGI (HCC-2998 colon): 25.3 µM
- TGI (HCT-116 colon): 34.4 µM
- TGI (HCT-15 colon): 13.1 µM
- TGI (HL-60(TB) leukemia): 6.61 µM
- TGI (HOP-62 NSCLC): 17.5 µM
- TGI (HOP-92 NSCLC): 24.9 µM
- TGI (HS 578T breast): 14.4 µM
- TGI (HT29 colon): 47.4 µM
- TGI (K-562 leukemia): > 100 µM
- TGI (KM12 colon): 27.5 µM
- TGI (LOX IMVI melanoma): 4.13 µM
- TGI (M14 melanoma): 10.2 µM
- TGI (MALME-3M melanoma): 5.76 µM
- TGI (MCF7 breast): > 100 µM
- TGI (MDA-MB-231 breast): 31.5 µM
- TGI (MDA-MB-435): 4.26 µM
- TGI (MDA-N): 20.9 µM
- TGI (MOLT-4 leukemia): > 100 µM
- TGI (NCI-H226 lung): 56.8 µM
- TGI (NCI-H23 lung): 12.7 µM
- TGI (NCI-H522 lung): 4.51 µM
- TGI (NCI/ADR-RES ovarian): 43.5 µM
- TGI (OVCAR-3 ovarian): 11.8 µM
- TGI (OVCAR-4 ovarian): 18.6 µM
- TGI (OVCAR-5 ovarian): 31.8 µM
- TGI (OVCAR-8 ovarian): 9.88 µM
- TGI (PC-3 prostate): 32.9 µM
- TGI (RPMI-8226 leukemia): > 100 µM
- TGI (RXF 393 renal): 6.84 µM
- TGI (SF-268 CNS): 14.4 µM
- TGI (SF-295 CNS): 25 µM
- TGI (SK-MEL-2 melanoma): 39.6 µM
- TGI (SK-MEL-28 melanoma): 27.7 µM
- TGI (SK-MEL-5 melanoma): 12.1 µM
- TGI (SK-OV-3 ovarian): 27.9 µM
- TGI (SN12C renal): 7.55 µM
- TGI (SNB-19 CNS): 30.5 µM
- TGI (SNB-75 CNS): 15.7 µM
- TGI (SR leukemia): > 100 µM
- TGI (SW-620 colon): 4.59 µM
- TGI (T-47D breast): 6.79 µM
- TGI (TK-10 renal): 31.8 µM
- TGI (U251 CNS): 18.9 µM
- TGI (UACC-257 melanoma): 32.9 µM
- TGI (UACC-62 melanoma): 20.8 µM
- TGI (UO-31 renal): 8.94 µM

Compound: COC(=O)C12C3C4C1C1C2C3C41C(=O)NC(C)(C)CC(=O)O (configuration not stated)
- TGI (786-0 renal): > 100 µM
- TGI (A498 renal): > 100 µM
- TGI (A549 NSCLC): > 100 µM
- TGI (ACHN renal): > 100 µM
- TGI (BT-549 breast): > 100 µM
- TGI (CAKI-1 renal): > 100 µM
- TGI (CCRF-CEM leukemia): > 100 µM
- TGI (COLO 205 colon): > 100 µM
- TGI (DU-145 prostate): > 100 µM
- TGI (EKVX NSCLC): > 100 µM
- TGI (HCC-2998 colon): > 100 µM
- TGI (HCT-116 colon): > 100 µM
- TGI (HCT-15 colon): > 100 µM
- TGI (HL-60(TB) leukemia): > 100 µM
- TGI (HOP-62 NSCLC): > 100 µM
- TGI (HOP-92 NSCLC): > 100 µM
- TGI (HS 578T breast): > 100 µM
- TGI (HT29 colon): > 100 µM
- TGI (IGROV1 ovarian): > 100 µM
- TGI (KM12 colon): > 100 µM
- TGI (LOX IMVI melanoma): > 100 µM
- TGI (M14 melanoma): > 100 µM
- TGI (MALME-3M melanoma): > 100 µM
- TGI (MCF7 breast): > 100 µM
- TGI (MDA-MB-231 breast): > 100 µM
- TGI (MDA-MB-435): > 100 µM
- TGI (MDA-N): > 100 µM
- TGI (MOLT-4 leukemia): > 100 µM
- TGI (NCI-H226 lung): > 100 µM
- TGI (NCI-H23 lung): > 100 µM
- TGI (NCI-H460 lung): 61 µM
- TGI (NCI-H522 lung): > 100 µM
- TGI (NCI/ADR-RES ovarian): > 100 µM
- TGI (OVCAR-3 ovarian): > 100 µM
- TGI (OVCAR-4 ovarian): > 100 µM
- TGI (OVCAR-5 ovarian): > 100 µM
- TGI (OVCAR-8 ovarian): > 100 µM
- TGI (PC-3 prostate): > 100 µM
- TGI (RPMI-8226 leukemia): > 100 µM
- TGI (RXF 393 renal): > 100 µM
- TGI (SF-268 CNS): > 100 µM
- TGI (SF-295 CNS): > 100 µM
- TGI (SF-539 CNS): > 100 µM
- TGI (SK-MEL-2 melanoma): > 100 µM
- TGI (SK-MEL-28 melanoma): > 100 µM
- TGI (SK-MEL-5 melanoma): > 100 µM
- TGI (SN12C renal): > 100 µM
- TGI (SNB-19 CNS): > 100 µM
- TGI (SNB-75 CNS): > 100 µM
- TGI (SR leukemia): > 100 µM
- TGI (SW-620 colon): > 100 µM
- TGI (T-47D breast): > 100 µM
- TGI (TK-10 renal): > 100 µM
- TGI (U251 CNS): > 100 µM
- TGI (UACC-257 melanoma): > 100 µM
- TGI (UACC-62 melanoma): > 100 µM
- TGI (UO-31 renal): > 100 µM

Compound: CCN(CC)c1ccc(/C=C/C2=NN(c3cccc(S(=O)(=O)O)c3)C3(C2)SCC(=O)N3c2nc3ccccc3s2)cc1 (configuration not stated)
- TGI (786-0 renal): > 100 µM
- TGI (A498 renal): 99 µM
- TGI (A549 NSCLC): > 100 µM
- TGI (ACHN renal): > 100 µM
- TGI (BT-549 breast): > 100 µM
- TGI (CAKI-1 renal): > 100 µM
- TGI (CCRF-CEM leukemia): 55 µM
- TGI (COLO 205 colon): 81.1 µM
- TGI (DU-145 prostate): 75.7 µM
- TGI (EKVX NSCLC): > 100 µM
- TGI (HCC-2998 colon): > 100 µM
- TGI (HCT-116 colon): > 100 µM
- TGI (HCT-15 colon): > 100 µM
- TGI (HL-60(TB) leukemia): 80.3 µM
- TGI (HOP-92 NSCLC): > 100 µM
- TGI (HS 578T breast): > 100 µM
- TGI (HT29 colon): > 100 µM
- TGI (IGROV1 ovarian): > 100 µM
- TGI (K-562 leukemia): > 100 µM
- TGI (KM12 colon): 60.5 µM
- TGI (LOX IMVI melanoma): > 100 µM
- TGI (M14 melanoma): > 100 µM
- TGI (MALME-3M melanoma): > 100 µM
- TGI (MCF7 breast): 91.2 µM
- TGI (MDA-MB-231 breast): > 100 µM
- TGI (MDA-MB-435): 47.2 µM
- TGI (MDA-N): > 100 µM
- TGI (MOLT-4 leukemia): > 100 µM
- TGI (NCI-H226 lung): > 100 µM
- TGI (NCI-H23 lung): > 100 µM
- TGI (NCI-H460 lung): > 100 µM
- TGI (NCI-H522 lung): 67.2 µM
- TGI (NCI/ADR-RES ovarian): > 100 µM
- TGI (OVCAR-4 ovarian): > 100 µM
- TGI (OVCAR-5 ovarian): > 100 µM
- TGI (OVCAR-8 ovarian): > 100 µM
- TGI (PC-3 prostate): > 100 µM
- TGI (RPMI-8226 leukemia): 66.8 µM
- TGI (RXF 393 renal): > 100 µM
- TGI (SF-268 CNS): > 100 µM
- TGI (SF-539 CNS): > 100 µM
- TGI (SK-MEL-2 melanoma): > 100 µM
- TGI (SK-MEL-28 melanoma): > 100 µM
- TGI (SK-MEL-5 melanoma): > 100 µM
- TGI (SN12C renal): > 100 µM
- TGI (SNB-19 CNS): > 100 µM
- TGI (SNB-75 CNS): > 100 µM
- TGI (SR leukemia): 86.2 µM
- TGI (SW-620 colon): > 100 µM
- TGI (T-47D breast): 53.9 µM
- TGI (TK-10 renal): 94 µM
- TGI (U251 CNS): > 100 µM
- TGI (UACC-257 melanoma): > 100 µM
- TGI (UACC-62 melanoma): > 100 µM
- TGI (UO-31 renal): > 100 µM
